Results: patent US4346097A, “Method for treating convulsions with pyrazole-4-carboxamide derivatives” (Warner-Lambert Company, priority 1980, dated 1982)

Assays:
[1] = Maximal Electroshock Seizure Test, MES; assay type: in vivo; conditions: for PI MES: Protective Index, ratio of TD50 vs ED50 MES
Source text: (§1) The term convulsions is intended to mean the characteristic body movements which are associated with the group of chronic central nervous system disorders termed, epilepsies.
2. Maximal Electroshock Seizure Test, MES.
(§2) These procedures are described in E. A. Swinyard, et al., Epilepsia, 19, 409 (1978), which is incorporated herein by reference. The TD50 is defined as the median minimal neurotoxic dose.

Rotorod Test, TD50 = conditions: in vivo
Source text: as §1, §2

[2] = Subcutaneous Pentylenetetrazole Seizure Threshold Test, scMet; assay type: in vivo; conditions: for PI scMet: Protective Index, ratio of TD50 vs ED50 scMet; for ED50: sc
Source text: The compounds of structural formula I are new chemical substances of value as pharmacological agents for the treatment of convulsions in warm-bloodedanimals. The term convulsions is intended to mean the characteristic body movements which are associated with the group of chronic central nervous system disorders termed, epilepsies. The anticonvulsant activity of representative compounds of formula I was established by the following standard test procedures: […]
3. Subcutaneous Pentylenetetrazole Seizure Threshold Test, scMet.
as §2

SMILES	ED50 [1]	TD50 (Rotorod Test, TD50)	PI MES [1]	PI scMet [2]	ED50 [2]
NC(=O)N1c2ccccc2C=Cc2ccccc21 [CARBAMAZEPINE]	8.81 mg/kg	–	–	–	–
CCC1(c2ccccc2)NC(=O)N(C)C1=O (stereo not shown) [MEPHENYTOIN]	60.5 mg/kg	154 mg/kg	2.54	5.05	30.4 mg/kg
Cc1ccccc1NC(=O)c1c(C)nn(C)c1N [5-Amino-1,3-dimethyl-N-(2-methylphenyl)-1H-pyrazole-4-carboxamide]	25.7 mg/kg	104 mg/kg	4.05	1.94	53.7 mg/kg
Cc1nn(C)c(N)c1C(=O)Nc1cccc(Cl)c1 [5-Amino-N-(3-chlorophenyl)-1,3-dimethyl-1H-pyrazole-4-carboxamide]	47.3 mg/kg	234 mg/kg	4.95	2.35	99.6 mg/kg
